Source: patent US20170354629A1, “Method And Compositions For Treating Skin” (ELC Management LLC, priority 2011, published 2017)

Assays:
[1] = test system: per1 gene expression in skin cells; experiment: observation of per1 gene expression in skin cells (no method given); format: cell-based; conditions: component commonly found in extracts of Echinacea
[2] = test system: per1 gene expression; experiment: per1 gene expression luciferase reporter assay in keratinocytes; format: cell-based; conditions: normal human epidermal keratinocytes (NHEK) transfected with pGL4.11 per1/luciferase plasmid; 16 hours incubation with test material; values only in FIGS. 1 and 2
Experimental: Cichoric acid and […] purpurea extract ([…]) were tested to determine per1 gene expression. Normal human epidermal keratinocytes (NHEK) were diluted in […] with supplement S001-5 added (Gibco, Cascade Biologics, Invitrogen) to form a concentration of 3×10^4 and plated onto a black walled 96 well microtiter plate by adding 100 μl in each well. The plate was incubated for 3 hours at 37° C. in 5% CO2. The media was removed and remaining adhered cells rinsed with […], supplement free. A plasmid solution was prepared by diluting Tris-EDTA pH 8.0 buffer with plasmid pGL4.11 (DNA 2.0, Carlsbad, Calif.) to form a 1 mg/ml solution. This plasmid contained a per1 gene sequence and a luciferase reporter gene sequence. A transfection mixture was prepared by diluting […], supplement free, to form a solution with 0.31 μg/ml of plasmid (obtained by adding appropriate amount of plasmid solution prepared above), 1.28% PlusTM Reagent (Catalog No. 11514-015, Invitrogen, Carlsbad, Calif.), and 3.22% LipofectamineTM Transfection Reagent (Catalog No. 18324-012, Invitrogen, Carlsbad, Calif.). […] Immediately prior to reading, Bright-GloTM (Pro-Mega, Madison Wis.) was added to each well plate in the same volume as is currently in the well (e.g. a 1:1 dilution). Luminescence was measured in an LMaxTM Microplate Luminometer (Molecular Devices, Sunnyvale, Calif.).

Row | per1 gene expression (luminescence of per1-luciferase reporter) [2] | Compound | per1 gene expression in skin cells [1]
1 | – | O=C(/C=C/c1ccc(O)c(O)c1)O[C@@H](C(=O)O)[C@@H](O)C(=O)O [caftaric acid] | does not increase per1 gene expression
2 | stimulate per1 gene expression | O=C(/C=C/c1ccc(O)c(O)c1)O[C@@H](C(=O)O)[C@@H](OC(=O)/C=C/c1ccc(O)c(O)c1)C(=O)O [cichoric acid] | –
